Results taken from patent publication US7091207B2, “Method of treating myocardial infarction with PDE-5 inhibitors” (Virginia Commonwealth University, priority 2002, dated 2006).

Experiments:
eNOS = test: Cardiac eNOS mRNA (RT-PCR) and protein (Western blot) expression after treatment; assay type: in vivo, mouse; conditions: 0.7 mg/kg IP
Method: Adult male outbred ICR mice were supplied by Harlan Inc (Indianapolis, Ind.). Viagra pills (Pfizer Inc) were ground into powder and dissolved in saline. The drug solution was filtered (0.45-μm pore size) before intraperitoneal injection. 1400W, an iNOS inhibitor, was obtained from Alexis. We used an isolated perfused mouse heart model subjected to 20 minutes of global ischemia and 30 minutes of reperfusion (Langendorff mode). Myocardial I-R injury was assessed by measuring infarct size, contractile function, and coronary flow as described previously (Xi, 1999). Twenty-eight mice were randomized into the following 4 groups: (n=6 to 9 per group): (1) saline (0.15 mL IP), (2) sildenafil (0.7 mg/kg IP, equivalent to 50 mg Viagra pill used for patients with erectile dysfunction, given 24 hours before I-R), (3) sildenafil+1400W (10 mg/kg IP, 14 given 30 minutes before I-R), and (4) saline+1400W. Measurement of NOS Isoforms Mice were treated with sildenafil (0.7 mg/kg IP), and their hearts were removed at 15, 30, and 45 minutes and 1, 2, 3, 4, and 24 hours after injection (n=3 per group). […] The target bands were identified on the basis of their specific size using DNA standards. iNOS and eNOS proteins were measured by Western blots as described previously. […] The mRNA and protein expression were quantified by scanning each of the RT-PCR or Western blot band using a densitometer (Bioquant 98). […]

[1] = system: mouse heart, global I-R injury; test: Isolated perfused mouse heart (Langendorff), 20 min global ischemia and 30 min reperfusion after in vivo treatment
Method: Adult male outbred ICR mice were supplied by Harlan Inc (Indianapolis, Ind.). Viagra pills (Pfizer Inc) were ground into powder and dissolved in saline. The drug solution was filtered (0.45-μm pore size) before intraperitoneal injection. 1400W, an iNOS inhibitor, was obtained from Alexis. We used an isolated perfused mouse heart model subjected to 20 minutes of global ischemia and 30 minutes of reperfusion (Langendorff mode). Myocardial I-R injury was assessed by measuring infarct size, contractile function, and coronary flow as described previously (Xi, 1999). Twenty-eight mice were randomized into the following 4 groups: (n=6 to 9 per group): (1) saline (0.15 mL IP), (2) sildenafil (0.7 mg/kg IP, equivalent to 50 mg Viagra pill used for patients with erectile dysfunction, given 24 hours before I-R), (3) sildenafil+1400W (10 mg/kg IP, 14 given 30 minutes before I-R), and (4) saline+1400W. Measurement of NOS Isoforms Mice were treated with sildenafil (0.7 mg/kg IP), and their hearts were removed at 15, 30, and 45 minutes and 1, 2, 3, 4, and 24 hours after injection (n=3 per group). Three nontreated hearts were used as controls. Tissue samples were ground under liquid nitrogen and homogenized with TRI Reagent (Molecular Research Center) for extracting total RNA, which was reverse-transcribed into cDNA at 50° C. for 30 minutes using a OneStep reverse transcription (RT)-polymerase chain reaction (PCR) kit from Qiagen. The oligonucleotide primers were synthesized on the basis of published sequences for murine iNOS, eNOS, and GAPDH15 (Integrated DNA Technology). The RT-PCR products were electrophoresed on 1.5% Trisacetate-EDTA agarose gel. The target bands were identified on the basis of their specific size using DNA standards. iNOS and eNOS proteins were measured by Western blots as described previously. 13 In brief, triplicate heart samples were collected 24 hours after saline or sildenafil injection and homogenized in ice-cold RIPA buffer (Upstate Biotechnology). The homogenate was centrifuged at 10,000 g for 10 minutes at 4° C., and supernatant was recovered as the total cellular protein. Total protein (60 μg) from each sample was separated by SDS-PAGE on 10% acrylamide gels, transferred to a polyvinylidine difluoride membrane, and then blocked with 5% nonfat dry milk in Tris-buffered saline. The membrane was subsequently incubated with a rabbit polyclonal antibody (dilution 1:500, Santa Cruz) reacting specifically to iNOS, eNOS, or actin. The secondary antibody was a horseradish peroxidase-conjugated anti-rabbit IgG (1:1000 dilution, Amersham). The membranes were developed using enhanced chemiluminescence and exposed to x-ray film. The mRNA and protein expression were quantified by scanning each of the RT-PCR or Western blot band using a densitometer (Bioquant 98). […]

[2] = system: doxorubicin-induced cardiotoxicity in mice; test: Chronic mouse model of doxorubicin-induced cardiotoxicity; assay type: in vivo; conditions: DOX-treated mice; sildenafil citrate 0.7 mg/kg ip
Method: Mice are treated with doxorubicin in the presence or absence of clinically relevant doses of sildenafil citrate, and the left ventricular systolic function is correlateed using 2-dimensional (2D) contrast echocardiography. The actions of dosing sildenafil citrate 24 hours prior to each dose of doxorubicin (Total of 3 doses) versus dosing sildenafil citrate daily for 28 days is tested. Histological examination is performed to assess the ultrastructural alterations including nuclear condensation with coarse chromatin clumping, sarcoplasmic reticulum vacuolization, and mitochondrial fine structure disruption which are known to occur widely in doxorubicin-treated cardiomyocytes. […] The role of sildenafil in attenuation of DOX-induced apoptosis and attenuation of mitochondrial transition pore opening is assessed. The contribution of […] channel opening in rescuing DOX-induced cell death in sildenafil treated mice is determined by using 5-hydroxydecanoate, a selective blocker of the […] channel.
Materials and methods. […] Weight of all animals is measured weekly and gross heart weight is measured prior to freezing in liquid nitrogen. […] Specifically, nuclear chromatinmargination, mitochondrial swelling, cristae disappearance/matrix clearing, presence or absence of contractile apparatus disarray, and sarcoplasmic reticulum vacuolization is measured.

[3] = system: cardiac myocytes from adult mice; test: Simulated ischemia/reoxygenation in isolated cardiac myocytes (trypan blue, TUNEL); assay type: cell-based; conditions: 10 μM, 40 min simulated ischemia
Method: The ability of sildenafil to confer protection against necrosis and apoptosis in cardiac myocytes was tested. Freshly isolated myocytes from adult mice were exposed to simulated ischemia with or without sildenafil (10 μM) for 40 minutes followed by reoxygenation for 60 minutes. The ischemic buffer contained (in mM): 118 NaCl, 24 NaHCO3, 1.0 NaH2PO4, 2.5 CaCl2-2H2O, 1.2 MgCl2, 20 sodium lactate, 16 KCl, 10 2-deoxyglucose (pH adjusted to 6.2). At the end of this protocol, necrotic cell death was evaluated by uptake of trypan blue using a phase contrast microscope. To determine apoptosis, the myocytes were reoxygenated for an extended period of 18 hrs after incubating them in the ischemic buffer for 40 minutes. Apoptosis was determined using the terminal deoxynucleotide nick-end labeling (TUNEL) assay which detects cells undergoing programmed cell death due to DNA fragmentation.

[4] = 0.7 mg/kg IP 24 hours before I-R

## CCCc1nn(C)c2c(=O)[nH]c(-c3cc(S(=O)(=O)N4CCN(C)CC4)ccc3OCC)nc12 [sildenafil]
eNOS
  eNOS mRNA and protein expression: increase
  time of peak eNOS mRNA level: 45 min
[1]; [4]
  preischemic or postischemic coronary flow: did not alter
  ventricular contractile function (stunning): not associated with compromised ventricular contractile function
[1]; sildenafil 0.7 mg/kg IP 24 hours before I-R
  infarct size: 6.9±1.2%
[2]
  LV function: improves LV function
  ultrastructural damage to the heart: reduces ultrastructural damage to the heart
[3]; 60 min reoxygenation
  necrotic cell death by trypan blue uptake: significantly more blue (i.e. viable) cells
[3]; 18 hrs reoxygenation
  apoptosis by TUNEL staining: rescues myocytes against apoptotic cell death
